Like-named read-outs stand apart in the source and are kept apart here. Marks after values point to notes of the source that are not given here.
Legend:
[1] = molecular target: T1, RhlR (Pseudomonas aeruginosa, UniProt P54292); assay: E. coli (JLD271) RhlR reporter antagonism assay, in competition with BHL; type: cell-based; conditions: for max. RhlR inhibition (%): BHL at 10 μM set to 0%, media control set to 100%
T1 construct: expressed in transfected cells; host or cells: E. coli JLD271 (K-12 ΔlacX74 sdiA271::Cam) carrying pJN105-R2 (RhlR expression) and pSC11-rhlI (rhlI'-lacZ reporter)
T1 sequence (P54292 whole entry): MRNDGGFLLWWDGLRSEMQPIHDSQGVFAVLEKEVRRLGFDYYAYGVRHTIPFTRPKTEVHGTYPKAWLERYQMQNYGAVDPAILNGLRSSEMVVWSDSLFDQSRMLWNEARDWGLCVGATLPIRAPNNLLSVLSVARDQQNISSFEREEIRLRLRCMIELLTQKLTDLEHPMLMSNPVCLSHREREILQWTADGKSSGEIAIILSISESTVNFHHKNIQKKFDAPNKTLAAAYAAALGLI
Procedure: To start, the sulfonyl HLs were evaluated for their ability to antagonize RhlR using a previously described E. coli strain (JLD271) harboring a RhlR expression plasmid and a rhlI reporter plasmid. This E. coli reporter produces RhlR, and protein activity in the presence of an added small molecule can be measured via the production of β-galactosidase as quantified via luminescence (see Methods). Compounds were screened in competition against RhlR’s native ligand, BHL (at its EC50 value in this strain, 10 μM), over a range of concentrations to generate antagonism dose–response curves (see Supporting Information) and calculate IC50 values (listed in Table ). A small set of compounds was also screened for RhlR agonism in the E. coli reporter; the agonism assay format was identical to the antagonism assay, except no BHL was added.
RhlR activity in E. coli strain JLD271 (ΔsdiA) was measured via a β-galactosidase reporter (rhI-lacZ) using the Promega Beta-Glo Assay System as previously described. RhlR activity in P. aeruginosa PA14 (ΔrhlIΔlasI) was measured via a GFP reporter (rhlA-gfp). […] See Supporting Information for both reporter protocols.
Supporting Information — Aguirre-Figueroa et al.
E. coli and P. aeruginosa RhlR reporter assay protocols.
E. coli RhlR reporter assay. RhlR activity in E. coli strain JLD271 (ΔsdiA) was measured via a β-galactosidase reporter using the Promega Beta-Glo® Assay System as previously described.10 A schematic of the reporter plasmids and assay protocol is shown in Scheme S1. Briefly, a single colony of E. coli JLD271 harboring the RhlR expression plasmid pJN105-R and the rhlI-lacZ transcriptional fusion reporter pSC11-R (Table S1) was grown in LB medium with 100 μg/mL ampicillin and 10 μg/mL gentamicin overnight (~16 h). The culture was diluted 1:10 in fresh LB medium and grown to an OD600 = 0.25 (0.23–0.28) (~0.5 h). Arabinose was added to a final concentration of 4 mg/mL to induce the expression of pJN105-R. Aliquots (2 μL) of compound DMSO stock solution or serial dilution were added to the inner wells (i.e., non-periphery rows) of a 96-well microtiter plate. To six inner wells, DMSO alone (vehicle) was added as a negative control. For agonism assays, BHL was added to six inner wells as a positive control (to achieve 1 mM). For antagonism assays, BHL was added to six inner wells as a positive control and to all of the other sample wells except for the vehicle control wells (to achieve 10 μM ). Subculture (198 μL) was then dispensed into each inner well. To the outer (periphery) wells, 200 μL of water were added to maintain humidity during incubation. Plates were then incubated for 4 h (shaking) at 37 °C.
Scheme S1. Schematic of E. coli reporter plasmids and assay. (A) Representation of plasmids used in the heterologous reporter system. (B) General reporter assay workflow. BioRender used in […]
After the incubation period, the OD600 of each well was measured using a plate reader. Cell dilution plates were prepared by transferring 10 μL from the incubated culture plate wells to a fresh 96-well plate and adding 90 μL of 18 MΩ water to each well. Next, 10 μL aliquots of diluted Beta-Glo® reagent (1:2 with 18 MΩ water) were added to each well of a white 384-well microtiter plate, followed by 10 μL of culture from each well of the dilution plate. The 384-well plate was incubated (without shaking; i.e., static) for 30 min at 30 °C. After incubation, luminescence of each well was measured using a plate reader. To determine levels of RhlR activity, raw luminescence was divided by OD600 to correct for growth variation and then normalized to the negative (0%) and positive (100%) control wells.
Dose-response reporter assay data for compounds in the E. coli RhlR reporter.
Dose-response curves for RhlR antagonism by compounds against 10 μM BHL using the E. coli JLD271 RhlR reporter are provided below. Compound names are indicated on the x-axis of each plot.
All assays performed in triplicate as at least three separate biological replicates. […]

[2] = tested on: bacterial growth; assay: Effect on bacterial growth (OD600 over time); type: cell-based; conditions: at >2 mM concentrations
Procedure: All new compounds were fully characterized for purity and identity (see Supporting Information). […] The remaining compounds had no effect on growth over the concentration range tested. All compounds were tested in bacteriological assays in triplicate and in at least three separate trials using unique cultures. IC50 and EC50 values in reporter assays were calculated using GraphPad Prism software (version 9.0) with a variable slope sigmoidal curve fit.

[3] = IC50, E. coli JLD271 RhlR reporter, against 10 μM BHL
[4] = E. coli JLD271 RhlR reporter, against 10 μM BHL
[5] = read-out: inhibitory potency on average (74, 75 and 18), average over the C4, C5 and C6 ASHLs, E. coli RhlR reporter

Structure (SMILES) | max. RhlR inhibition (%) ([1]; E. coli RhlR reporter) | IC50 [1, 3] [µM] | also measured
Cc1ccc(CS(=O)(=O)N[C@H]2CCOC2=O)cc1 [Compound 13, 4-Me BnSHL] | 90% | 918 | fold less potent than parent 4-Me PHL ([1]; E. coli RhlR reporter IC50, comparator printed as 19): ~170 fold
O=C1OCC[C@@H]1NS(=O)(=O)Cc1ccc([N+](=O)[O-])cc1 [Compound 16, 4-NO2 BnSHL] | 97% | 1290 | 
CCCCCCS(=O)(=O)N[C@H]1CCOC1=O [Compound 18] | 77% |  | IC50 [1, 4]: 36.4 µM; IC50 [1, 5]: ~28 µM
O=C1OCC[C@@H]1NS(=O)(=O)Cc1ccc(Br)cc1 [Compound 19, 4-Br BnSHL] | 77% | 348 | fold more potent in RhlR than 13 or 16 ([1]; E. coli RhlR reporter IC50): approximately 3 fold
O=C1OCC[C@@H]1NS(=O)(=O)Cc1ccc(Cl)cc1 [Compound 21, 4-Cl BnSHL] | 99% | 219 | fold more potent in RhlR than 13 or 16 ([1]; E. coli RhlR reporter IC50): approximately 3 fold
O=C1OCC[C@@H]1NS(=O)(=O)Cc1ccc(F)cc1 [Compound 22, 4-F BnSHL] | 94% | 205 | fold more potent in RhlR than 13 or 16 ([1]; E. coli RhlR reporter IC50): approximately 3 fold
O=C1OCC[C@@H]1NS(=O)(=O)c1ccc(Cl)cc1Cl [Compound 24, 2,4-di-Cl-BSHL] | 99% | 1590 | 
O=C1OCC[C@@H]1NS(=O)(=O)c1ccc(Cl)cc1 [Compound 26] | 96% | 452 | effect on bacterial growth [2]: modest effect on bacterial growth
O=C1OCC[C@@H]1NS(=O)(=O)c1cccc(Cl)c1 [Compound 28, 3-chloro-BSHL] | 97% | 143 | fold more potent than 26 and 27 ([1]; E. coli RhlR reporter IC50): 3 fold
O=C1OCC[C@@H]1NS(=O)(=O)c1ccc(I)cc1 [Compound 36] | 99% | 295 | 
O=C1OCC[C@@H]1NS(=O)(=O)c1ccc(C(F)(F)F)cc1 [Compound 37] | 99% | 333 | 
O=C1OCC[C@@H]1NS(=O)(=O)c1cccc(Cl)c1Cl [Compound 42, 2,3-di-Cl BSHL] | 95% | 67.8 | fold lower IC50 value than 3-Cl BSHL (28) ([1]; E. coli RhlR reporter IC50): over 2 fold
O=C1OCC[C@@H]1NS(=O)(=O)Cc1ccc(Cl)c(Cl)c1 [Compound 44, 3,4-di-Cl BnSHL] | 82% | 205 | 
O=C1OCC[C@@H]1NS(=O)(=O)c1ccc(Cl)c(Cl)c1Cl [Compound 45, 2,3,4-tri-Cl BSHL] | 80% | 1030 | reduction of potency relative to 3,4-Cl BSHL (43) ([1]; E. coli RhlR reporter IC50): at least 2 orders of magnitude
COc1cccc(S(=O)(=O)N[C@H]2CCOC2=O)c1 [Compound 48] | 88% | 210 | 
O=C1OCC[C@H]1NS(=O)(=O)c1ccc(Cl)c(Cl)c1 [Compound 55, 3,4-di-Cl BSHL] | 99% | 195 | 

Structure (SMILES) | max. RhlR inhibition (%) ([1]; E. coli RhlR reporter) | IC50 [1, 3] [µM] | also measured
O=C1OCC[C@@H]1NS(=O)(=O)c1ccc(Cl)c(C(F)(F)F)c1 [Compound 60] | 90% | 93.1 | 
O=C1OCC[C@@H]1NS(=O)(=O)c1ccc(F)c([N+](=O)[O-])c1 [Compound 71, 3-NO2,4-F BSHL] | 62% | 257 | 
CCCS(=O)(=O)N[C@H]1CCOC1=O [Compound 72, C3-AHSL] | 45 ^f % |  | activity profile in RhlR ([1]; E. coli RhlR reporter dose-response curves): weak partial agonist
O=C1OCC[C@@H]1NS(=O)(=O)c1ccc(Br)c(Cl)c1 [Compound 73, 3-Cl, 4-Br BSHL] | 98% | 118 | fold less potent than 43 ([1]; E. coli RhlR reporter IC50): over 2 fold
CCCCS(=O)(=O)N[C@H]1CCOC1=O [Compound 74] | 70% |  | IC50 [1, 4]: 35.2 µM; IC50 [1, 5]: ~28 µM
O=C1OCC[C@@H]1NS(=O)(=O)c1ccc(F)c(C(F)(F)F)c1 [Compound 76] | 84% | 69.4 | 
O=C1OCC[C@@H]1NS(=O)(=O)c1cc(F)c(F)c(F)c1 [Compound 86, 3,4,5-F BSHL] | 80% | 24.5 | potency gain ([1]; 33 vs 16, 43 vs 24, 86 vs 45, E. coli RhlR reporter IC50): ≤ 40 fold; fold higher potency relative to 3,4-di-Cl BSHL (43) ([1]; E. coli RhlR reporter IC50): over 2 fold
O=C1OCC[C@@H]1NS(=O)(=O)c1cc(Cl)c(F)c(Cl)c1 [Compound 87, 3,5-Cl-4F BSHL] | 85% | 68 | fold higher potency relative to 3,4-di-Cl BSHL (43) ([1]; E. coli RhlR reporter IC50): no change in potency
O=C1OCC[C@@H]1NS(=O)(=O)c1cccc(F)c1 [Compound 88, 3-fluoro BSHL] | 92% | 120 | 
O=C1OCC[C@@H]1NS(=O)(=O)c1c(Cl)cccc1Cl [Compound 89, 2,6-di-Cl-BSHL] | 86% | > 1000 | 
O=C1OCC[C@@H]1NS(=O)(=O)c1cc(Cl)ccc1Cl [Compound 90, 2,5-di-Cl BSHL] | 92% | 1100 | 
O=C1OCC[C@@H]1NS(=O)(=O)c1ccc(F)cc1 [Compound 91] | 97% | 301 | 
O=C1OCC[C@@H]1NS(=O)(=O)c1ccccc1F [Compound 92, 2-fluoro-BSHL] | 91% | 863 | 
Cc1cccc(S(=O)(=O)N[C@H]2CCOC2=O)c1 [Compound 93] | 95% | 127 | 
Cc1ccc(CC(=O)N[C@H]2CCOC2=O)cc1 [Compound C19, 4-Me PHL, reference compound] | 89% | 5.46 | 
O=C(Cc1ccc(C(F)(F)F)cc1)N[C@H]1CCOC1=O [Compound C20, 4-CF3 PHL, reference compound] | 93% | 10.3 | 
